Measured values: PMC12278645, “Design, synthesis, and antitumor activity of novel thioheterocyclic nucleoside derivatives by suppressing the c-MYC pathway” (Acta Pharmaceutica Sinica. B, 2025)
Where two headings read alike, the source gives them in different places.

Columns and labels:
Acute toxicity assay = assay type: in vivo; conditions: for Death rate: 10 mice; for Number of dead mice: of 5
Description: SPF BALB/c mice were divided into […] randomly (n = 10, 5 male, and 5 female) and injected intraperitoneally with defined dosages of compound 33a (90, 260, 350, 450, 600, and 800 mg/kg) or dilute (DMSO: castor oil: PBS = 1:2:7, v/v/v). The mice were observed continuously for 14 days after administration. The number of mortalities during the experiment was recorded, and the statistical result of the experimental endpoint was used to calculate LD50.

[1] = test system: CT26 colon cancer xenograft; test: CT26 xenograft tumor growth assay; assay type: in vivo, BALB/c mice
Description: All animal studies and procedures were approved by the Animal Ethics Committee of College of Chemistry and Chemical Engineering, Henan Normal University, China. CT26 cells (ATCC, Rockville, MD, USA) were used for tumor allograft experiments. […] Mice were injected with CT26 cells (1 × 10^7 per mouse) subcutaneously. The diameter of transplanted mouse tumors was measured with vernier calipers. […] The antitumor activity of the tested compounds was evaluated by measuring the tumor diameter. Tumor diameter and body weight were measured every two days. After 15 days, tumor tissues were surgically removed, weighed, and photographed. The tumor volume (TV) was calculated as in Eq. (1):(1) V=1/2×a×b^2 where a and b represent the length and width, respectively. Samples were used for histology. The tumor growth inhibition rate TGI (%) was calculated with Eq. (2):(2) TGI(%)=(1‒Tw/Cw)×100 where Tw and Cw are the average tumor weight on the 15th day for the treatment group and the model group, respectively.

[2] = Tissue distribution (LC-MS/MS); assay type: in vivo, BALB/c mice; conditions: for concentration at 4 h: BALB/c, mouse, intraperitoneal, 55 mg/kg intraperitoneally, after 4 h
[3] = Metabolites in mice (LC-QTOF/MS); assay type: in vivo, BALB/c mice; conditions: 55 mg/kg, mixed plasma 0-24 h
Description: SPF BALB/c mice were adaptively fed for one week. In the control group, mice received an intravenous injection of an equal volume of solvent. In the Model group, mice received an intravenous injection of 55 mg/kg of 33a. Following administration at time points of 0, 0.25, 0.5, 1, 2, 4, 8, 12, and 24 h, mixed plasma samples were collected from mice in each group. Subsequently, blood metabolites were detected, identified, and analyzed utilizing LC-QTOF/MS technology.
The ionization mode is Electrospray Ionization in positive mode (ESI+), with an ion source voltage of 5 kV and a temperature set at 550 °C. The collision energy (CE) is 30 eV. The nebulizing gas, gas1 (nebulizer gas), and gas2 (auxiliary gas) are all nitrogen (N2) with their pressures set to 55 psi. The curtain gas (CUR) pressure is 35 psi. The parent ion scan range for the first-order mass spectrum is m/z […] to 1000, and the daughter ion scan range is m/z 50 to 1000. Dynamic Background Subtraction (DBS) is activated. The software used for data acquisition is Analyst® TF 1.8 software.

**Q.** For `CCOC(=O)[C@]1(n2cnc3c(N4CCCCC4)nc(F)nc32)CSC[C@H]1O` (racemic) [33a], which Death rate (Acute toxicity assay; 90 mg/kg i.p.) is on record?
**A.** 0%

**Q.** What about the “Number of dead mice” value (Acute toxicity assay; 90 mg/kg, ♀) of the same molecule?
**A.** 0

**Q.** And the “Number of dead mice” value (Acute toxicity assay; 90 mg/kg, ♂)?
**A.** 0

**Q.** What about the Death rate (Acute toxicity assay; 260 mg/kg i.p.) of the same molecule?
**A.** 0%

**Q.** What about the “Number of dead mice” value (Acute toxicity assay; 260 mg/kg, ♀) of the same molecule?
**A.** 0

**Q.** And the “Number of dead mice” value (Acute toxicity assay; 260 mg/kg, ♂)?
**A.** 0

**Q.** And the Death rate (Acute toxicity assay; 350 mg/kg i.p.)?
**A.** 10%

**Q.** And the “Number of dead mice” value (Acute toxicity assay; 350 mg/kg, ♀)?
**A.** 1

**Q.** What about the “Number of dead mice” value (Acute toxicity assay; 350 mg/kg, ♂) of the same molecule?
**A.** 0

**Q.** And the Death rate (Acute toxicity assay; 450 mg/kg i.p.)?
**A.** 20%

**Q.** And the “Number of dead mice” value (Acute toxicity assay; 450 mg/kg, ♀)?
**A.** 2

**Q.** What about the “Number of dead mice” value (Acute toxicity assay; 450 mg/kg, ♂) of the same molecule?
**A.** 0

**Q.** What about the Death rate (Acute toxicity assay; 600 mg/kg i.p.) of the same molecule?
**A.** 60%

**Q.** What about the “Number of dead mice” value (Acute toxicity assay; 600 mg/kg, ♀) of the same molecule?
**A.** 3

**Q.** What about the “Number of dead mice” value (Acute toxicity assay; 600 mg/kg, ♂) of the same molecule?
**A.** 3

**Q.** And the Death rate (Acute toxicity assay; 800 mg/kg i.p.)?
**A.** 100%

**Q.** And the “Number of dead mice” value (Acute toxicity assay; 800 mg/kg, ♀)?
**A.** 5

**Q.** And the “Number of dead mice” value (Acute toxicity assay; 800 mg/kg, ♂)?
**A.** 5

**Q.** And the LD50 at 14 days (Acute toxicity assay; both sexes, mouse, in vivo, ip, BALB/c mice, intraperitoneal, observed 14 days)?
**A.** 553 mg/kg

**Q.** What about the TGI ([1]; 20 mg/kg i.p. once a day for 14 days) of the same molecule?
**A.** 54.74%

**Q.** And the “IHC of tumor tissue” value ([1]; 55 and 20 mg/kg)?
**A.** significantly reduce the expression of tumor proliferation markers Ki67 and PCNA, increase the expression of cleaved caspase-3, and decrease the expression of c-MYC

**Q.** What about the “effect on body weight” value ([1]; 55 and 20 mg/kg i.p., 14 days) of the same molecule?
**A.** did not show an obvious toxic effect on body weight

**Q.** And the “tumor growth” value ([1]; 55 and 20 mg/kg i.p., 14 days, tumor volume and weight)?
**A.** significant dose-dependent inhibitory effect on tumor growth

**Q.** What about the “H&E staining of major organs” value ([1]; heart, liver, spleen, lung, kidney) of the same molecule?
**A.** the major organs showed no apparent evidence of injury or abnormality

**Q.** And the “blood-brain barrier passage” value ([2]; 55 mg/kg, 4 h)?
**A.** can readily cross the blood‒brain barrier

**Q.** What about the concentration at 4 h ([2]; brain, read-out: concentration in brain) of the same molecule?
**A.** 87900 ± 21500 ng/g

**Q.** What about the concentration at 4 h ([2]; heart, read-out: concentration in heart) of the same molecule?
**A.** 16900 ± 2990 ng/g

**Q.** What about the concentration at 4 h ([2]; kidney, read-out: concentration in kidney) of the same molecule?
**A.** 70400 ± 5140 ng/g

**Q.** What about the concentration at 4 h ([2]; liver, read-out: concentration in liver) of the same molecule?
**A.** 12500 ± 2130 ng/g

**Q.** And the concentration at 4 h ([2]; lung, read-out: concentration in lung)?
**A.** 38500 ± 4430 ng/g

**Q.** And the concentration at 4 h ([2]; spleen, read-out: concentration in spleen)?
**A.** 5490 ± 2450 ng/g

**Q.** And the “metabolic pathways” value [3]?
**A.** hydrolysis of carboxylic acid ester and glucuronidation
